Assay results from patent US11692227B2, “Method for screening for skin whitening agent by using SDF1 promoter region” (AJOU UNIVERSITY INDUSTRY-ACADEMIC COOPERATION FOUNDATION, priority 2018, dated 2023).

System: SDF1 promoter
Test: Screening of pigment regulators using SDF1 promoter (pGF1 reporter fibroblast cell line, Luciferase assay)
Assay type: cell-based
Details: fibroblasts infected with SDF1 promoter pGF1 vector virus; 1 ug TPA; 1 ug and 10 ug retinoic acid; 24 hours after treatment
Excerpt: In order to express the SDF1 promoter gene, the SDF1 promoter gene was inserted into pGF1-vector to construct the SDF1 promoter GFP vector. In order to produce the virus into which the constructed vector was inserted, a virus production system of lentivirus was used. PVSV-G (SystemBiosciences, USA) encoding the required structural protein, the pGF1 vector into which the SDF1 promoter gene was inserted, and pGag-pol were simultaneously co-transfected into HEK-293TN cells by a liposome method. After 6 hours, the medium was replaced with a new medium, cultured for 48 hours, and the medium containing the virus was harvested, and the harvested virus was used for fibroblasts infection. As for the infected fibroblasts, only cells infected by Puromycin were selected for the experiment.
In order to confirm the expression of the prepared SDF1 promoter, Luciferase assay, an experiment that can confirm the level of GFP, was conducted to observe the expression level.
Cells were cultured in 12 well plates in an amount of 1×10^3, and after 24 hours, 1 ug of TPA, 10 ng and 100 ng of EGF, and 1 ug and 10 ug of retinoic acid were treated, respectively. 24 hours after treatment with the drug, the activity of GFP was measured through Luciferase assay.

CCCCCCCCCCCCCC(=O)O[C@@H]1[C@@H](C)[C@@]2(O)[C@@H](C=C(CO)C[C@]3(O)C(=O)C(C)=C[C@@H]23)[C@@H]2C(C)(C)[C@]12OC(C)=O [TPA]
SDF1 promoter activity (activity of GFP measured through Luciferase assay): decreased
